# According to patent US20220133842A1 (priority 2019, published 2022):
# Where two headings read alike, the source gives them in different places.
# What was measured:
# [1] = system: Staphylococcus aureus MRSA USA300 (ATCC BAA-1717); type: cell-based
# [2] = system: Salmonella enterica (CIP 80.39); type: cell-based
# [3] = system: Fusarium oxysporum (DSM 62316); type: cell-based
# [4] = system: Citrobacter rodentium (ATCC 51116); type: cell-based
# [5] = system: Aspergillus flavus (DSM 1959); type: cell-based
# [6] = system: Arthrobacter gandavensis (DSM 2447); type: cell-based
# [7] = system: Clostridium perfringens (ATCC 13124)
# [8] = system: Citrobacter farmeri (ATCC 51633); type: cell-based
# [9] = system: Klebsiella pneumoniae (DSMZ 26371); type: cell-based
# [10] = system: Bacillus subtilis (DSM 347); type: cell-based
# [11] = system: Lactococcus lactis (DSM 20481); type: cell-based
# [12] = system: Bacteroides thetaioataomicron (DSM 2255); assay: microbe, parasite or virus in culture; type: cell-based
# [13] = system: Lactobacillus acidophilus (DSM 20079); assay: microbe, parasite or virus in culture; type: cell-based
# [14] = system: Listeria monocytogenes (DSM 20600); type: cell-based
# [15] = system: Clostridium difficile (DSM 1296); assay: microbe, parasite or virus in culture; type: cell-based
# [16] = system: Micrococcus luteus (DSM 20030); type: cell-based
# [17] = system: Clostridium coccoides (DSM 935); assay: microbe, parasite or virus in culture; type: cell-based
# [18] = system: Clostridium propionicum (DSM 6251); assay: microbe, parasite or virus in culture; type: cell-based
# [19] = system: Propionibacterium acnes (ATCC 6919); assay: microbe, parasite or virus in culture; type: cell-based
# [20] = system: Staphylococcus aureus (ATCC 6538P); type: cell-based
# [21] = system: Penicillium verrucosum (DSM 12639); type: cell-based
# [22] = system: Shigella flexneri (ATCC 12022); type: cell-based
# [23] = system: Streptococcus pyogenes (DSM 20565); assay: microbe, parasite or virus in culture; type: cell-based
# [24] = system: Clostridium botulinum (DSM 1985); assay: microbe, parasite or virus in culture; type: cell-based
# [25] = system: Candida albicans (DSM 10697); type: cell-based
# [26] = system: Pseudomonas aeruginosa (CIP 107398); type: cell-based
# [27] = system: Acinetobacter baumannii (CIP 110431); type: cell-based
# [28] = system: Fusarium graminearum (DSM 1095); type: cell-based
# [29] = system: Clostridium nexile (DSM 1787); assay: microbe, parasite or virus in culture; type: cell-based
# [30] = system: Aspergillus ochraceus (DSM 824); type: cell-based
# [31] = system: Fusarium verticillioides (DSM 62264); type: cell-based
# [32] = system: Streptococcus thermophilus (ATCC LMD-9); assay: microbe, parasite or virus in culture; type: cell-based
# Bacillus cereus (DSM 31) = type: cell-based
# [33] = system: Helicobacter pylori (ATCC 43504); assay: microbe, parasite or virus in culture; type: cell-based
# [34] = system: Enterococcus faecalis (DSM 13591); assay: microbe, parasite or virus in culture; type: cell-based
# [35] = system: Aspergillus niger (ATCC 9142); type: cell-based
# [36] = system: Escherichia coli (ATCC 8739); type: cell-based
# [37] = system: Mycobacterium smegmatis (ATCC 700084); type: cell-based
# [38] = system: Klebsiella variicola (DSM 15968); type: cell-based
# T84 cells (ATCC CCL-248) = assay: cells; type: cell-based, human; conditions: read-out: IC50 (concentration causing 50% cell death)
# [39] = system: human or porcine intestinal cells grown on inserts
# IPEC-J2 cells [40] = assay: cells; type: cell-based, pig; conditions: read-out: IC50 (concentration causing 50% cell death)
# [41] = system: Clostridium perfringens (ATCC13124); type: cell-based
# [42] = system: Caco-2 cells (ATCC HTB-37); assay: cells; type: cell-based, human; conditions: read-out: IC50 (concentration causing 50% cell death)
# [43] = system: human (Caco-2 and T84) and pig (IPEC-J2) intestinal cells
# IPEC-J2 cells [44] = system: IPEC-J2 cells
# [45] = system: Clostridium perfringens (ATCC 13124); type: cell-based
# [46] = system: Clostridium perfringens (ATCC 13124); type: cell-based; remark: listed apart in the source
# [47] = system: Clostridium perfringens strain (ATCC 13124) and clinical strains of Clostridium perfringens; type: cell-based
# [48] = Clostridium perfringens, ATCC13124
molecule,measurement,setting,value
Bafilomycin B1,MIC,[1],20 µM
same,MIC,[2],>100 µM
same,MIC,[3],50 µM
same,MIC,[4],>100 µM
same,MIC,[5],3.25 µM
same,MIC,[6],3 µM
same,MIC,[7],10 µM
same,MIC (mg/L),[7],8.15 mg/L
same,MIC,[8],>100 µM
same,MIC,[9],>100 µM
same,MIC,[10],20 µM
same,MIC,[11],50 µM
same,MIC,[12],>100 µM
same,MIC,[13],10 µM
same,MIC,[14],50 µM
same,MIC,[15],>100 µM
same,MIC,[16],25 µM
same,MIC,[17],30 µM
same,MIC,[18],25 µM
same,MIC,[19],60 µM
same,MIC,[20],10 µM
same,MIC,[21],6.25 µM
same,MIC,[22],>100 µM
same,MIC,[23],20 µM
same,MIC,[24],30 µM
same,MIC,[25],100 µM
same,MIC,[26],>100 µM
same,MIC,[27],>100 µM
same,MIC,[28],25 µM
same,MIC,[29],60 µM
same,MIC,[30],6.25 µM
same,MIC,[31],50 µM
same,MIC,[32],30 µM
same,MIC,Bacillus cereus (DSM 31),25 µM
same,MIC,[33],>100 µM
same,MIC,[34],40 µM
same,MIC,[35],100 µM
same,MIC,[36],>100 µM
same,MIC,[37],>100 µM
same,MIC,[38],>100 µM
Cc1ncc([N+](=O)[O-])n1CCO [Metronidazole],IC50,"T84 cells (ATCC CCL-248); Homo sapiens, T84, 48 h",> 1500 µM
same,decrease in transepithelial electrical resistance,"[39]; human, pig",0-34%
same,MIC (mg/L),[7]; [48],1.60 mg/L
same,IC50,"IPEC-J2 cells [40]; Sus scrofa, IPEC-J2, 48 h",> 1500 µM
same,MIC,"[12]; Bacteroides, DSM2255",2.34 µM
same,MIC,"[13]; Lactobacillus acidophilus, DSM20079",> 1500 µM
same,MIC,"[15]; Clostridioides difficile, DSM1296",1.17 µM
same,increase in MIC,[41]; after 7 days of contact,10 fold
same,increase in MIC,[41]; after 9 days of contact,50-100 fold
same,MIC,"[17]; Blautia producta, DSM935",0.29 µM
same,MIC,"[18]; Anaerotignum propionicum, DSM6251",1.17 µM
same,MIC,"[19]; Cutibacterium acnes, ATCC6919",1500 µM
same,MIC,"[23]; Streptococcus pyogenes, DSM20565",> 1500 µM
same,MIC,"[24]; Clostridium botulinum, DSM1985",0.29 µM
same,transepithelial electrical resistance,Caco-2 cells; human,252 +/− 13.7 ohm.cm2
same,IC50,"[42]; Homo sapiens, Caco-2, 48 h",> 1500 µM
same,toxicity to intestinal cells,[43],not toxic
same,transepithelial electrical resistance,IPEC-J2 cells [44]; pig,875 +/− 203 ohm.cm2
same,MIC,"[29]; Faecalimonas nexilis, DSM1787",2.34 µM
same,MIC,[32]; Streptococcus thermophilus,1500 µM
same,transepithelial electrical resistance,T84 cells; human,293 +/− 12.3 ohm.cm2
same,MIC,"[33]; Helicobacter pylori, ATCC 21031 / ATCC 43504",> 1500 µM
same,MIC,"[34]; Enterococcus faecalis, DSM13591",> 1500 µM
CO/C1=C\C(C)=C\[C@@H](C)[C@@H](O)[C@@H](C)C/C(C)=C/C=C/[C@H](OC)[C@@H]([C@@H](C)[C@@H](O)[C@H](C)[C@@]2(O)C[C@@H](O)[C@H](C)[C@@H](C(C)C)O2)OC1=O [Bafilomycin A1],MIC,[1],>100 µM
same,MIC,[2],>100 µM
same,MIC,[3],>100 µM
same,IC50,T84 cells (ATCC CCL-248),9.9 µM
same,MIC,[4],>100 µM
same,decrease in transepithelial electrical resistance,[39],61-75%
same,MIC,[5],3.25 µM
same,MIC,[6],3 µM
same,MIC,[7]; [48],25 µM
same,MIC (mg/L),[7]; [48],15.5 mg/L
same,MIC,[8],100 µM
same,MIC,[9],100 µM
same,MIC,[10],100 µM
same,IC50,IPEC-J2 cells [40],1.8 µM
same,MIC,[11],50 µM
same,MIC,[12],>100 µM
same,MIC,[13],33 µM
same,MIC,[14],25 µM
same,MIC,[15],>100 µM
same,MIC,[16],25 µM
same,MIC,[17],>100 µM
same,MIC,[18],25 µM
same,MIC,[19],50 µM
same,MIC,[20],12.5 µM
same,MIC,[22],>100 µM
same,MIC,[23],66 µM
same,MIC,"[24]; Clostridium botulinum, DSM1985",6.25 µM
same,MIC,[25],>100 µM
same,MIC,[26],>100 µM
same,transepithelial electrical resistance,Caco-2 cells,112 ohm.cm2
same,IC50,[42],11.8 µM
same,safety factor (IC50 in the toxicity test divided by MIC on Clostridium perfringens ATCC 13124),[43],less than 1
same,toxicity to intestinal cells,[43],toxic
same,MIC,[27],>100 µM
same,transepithelial electrical resistance,IPEC-J2 cells [44],191 ohm.cm2
same,MIC,[28]; Fusarium graminearum (DSM 1095),6.25 µM
same,MIC,[29],50 µM
same,MIC,[30],>100 µM
same,MIC,[31],50 µM
same,MIC,[32],25 µM
same,MIC,Bacillus cereus (DSM 31),12.5 µM
same,transepithelial electrical resistance,T84 cells,118 ohm.cm2
same,MIC,[33],>100 µM
same,MIC,[34],>100 µM
same,MIC,[35],>100 µM
same,MIC,[36],25 µM
same,MIC,[37],>100 µM
same,MIC,[38],>100 µM
Destruxin A,MIC,[1],>100 µM
same,MIC,[2],>100 µM
same,MIC,[3],>100 µM
same,IC50,T84 cells (ATCC CCL-248),> 100 µM
same,MIC,[4],>100 µM
same,MIC,[5],>100 µM
same,MIC,[6],>100 µM
same,MIC (mg/L),[7],0.86 mg/L
same,morphological phenotype (mechanism of action),[45],hypercondensation of bacterial DNA
same,permeabilisation of the bacterial membrane,[46],no permeabilisation
same,MIC,[8],>100 µM
same,MIC,[9],>100 µM
same,MIC,[10],>100 µM
same,IC50,IPEC-J2 cells [40],> 100 µM
same,MIC,[11],>100 µM
same,MIC,[12],>100 µM
same,MIC,[13],>100 µM
same,MIC,[14],>100 µM
same,MIC,[15],>100 µM
same,MIC,[16],>100 µM
same,change of MIC during exposure,[41],do not change or change only slightly
same,MIC,[17],>100 µM
same,MIC,[18],>100 µM
same,MIC,[19],>100 µM
same,MIC,[20],>100 µM
same,MIC,[21],>100 µM
same,MIC,[22],>100 µM
same,MIC,[23],>100 µM
same,MIC,[24],>100 µM
same,MIC,[25],>100 µM
same,MIC,[26],>100 µM
same,IC50,[42],> 100 µM
same,toxicity to intestinal cells,[43],not toxic
same,MIC,[27],>100 µM
same,MIC,[28],>100 µM
same,MIC,[29],>100 µM
same,MIC,[30],>100 µM
same,MIC,[31],>100 µM
same,MIC,[32],>100 µM
same,MIC,Bacillus cereus (DSM 31),>100 µM
same,MIC,[33],>100 µM
same,MIC,[34],>100 µM
same,minimum bactericidal concentrations (BMC values),[47],identical to the MIC values
same,MIC,[35],>100 µM
same,MIC,[36],>100 µM
same,MIC,[37],>100 µM
same,MIC,[38],>100 µM
